Data published in patent US11814405B2, “Pyridine sulfonamide phosphate compound, preparation method therefor, and use thereof” (Shanghai Xunhe Pharmaceutical Technology Co. Ltd., priority 2019, dated 2023).
Entries after “also recorded” stand apart in the source; their conditions may differ.

Tests used:
[1] = Comparison of water solubility; conditions: for Phenomenon: at the API:water ratio given
[2] = system: Male SD rats; experiment: Comparison of diuretic effects: urine output in saline-loaded rats; assay type: in vivo, rat; conditions: 10 mg/kg, ig, after 30 mL/kg normal saline, urine collected for 4 h
Experimental: Male SD rats (body weight: 180±20 g) were randomly divided into 14 groups with 3 rats in each group. Each rat was administrated 30 mL/kg normal saline through intragastric administration. After intragastric administration of normal saline, except the blank control group, each group was administrated one drug (10 mg/kg, ig, 1 mg/mL, formulation prescription: normal saline dissolution). Urination for 4 h was collected.

[3] = active metabolite in vivo, compared with torsemide (Drugs 41 (1): 81-103, 1991); cited from earlier work
[4] = cited from earlier work

| Phenomenon [1] | Conclusion (water solubility) [1] | Structure (SMILES) | Urine output [2] [mL/kg] | pharmacological activity [3] | solubility in water [4] | solubility in 0.1 mol/L sodium hydroxide solution ([4]; 0.1 mol/L sodium hydroxide solution) |
| --- | --- | --- | --- | --- | --- | --- |
| Completely dissolved | Slightly soluble | Cc1cc(Nc2ccncc2S(=O)(=O)NC(=O)NC(C)C)ccc1O [Compound M3] | 107.2 | comparable to torsemide | has not been effectively improved | – |
| Completely dissolved | Very slightly | Cc1cccc(Nc2ccncc2S(=O)(=O)NC(=O)NC(C)C)c1 [Torsemide, 1-[4-(3-methylphenyl)aminopyridin-3-yl]sulfonyl-3-isopropylurea] | 105.3 | – | almost insoluble in water; also recorded: very slightly soluble in water | slightly soluble |
